Assay results reported in publication PMC3753754, “Andrographis paniculata Extract and Andrographolide Modulate the Hepatic Drug Metabolism System and Plasma Tolbutamide Concentrations in Rats” (Evidence-based Complementary and Alternative Medicine : eCAM, 2013).
Marks after values point to notes of the source that are not given here.

Key:
[1] = system: CYP1A1, CYP1A2, CYP2C6, CYP2C11, and CYP3A2; experiment: RT-PCR of hepatic CYP isozyme mRNA in treated rats; format: in vivo; conditions: rat liver, APE or andrographolide for 5 days
Description: Total RNA in liver samples was extracted by using the Trizol reagent (1 : 20, w/v). […] The sequences for the PCR primers were as follows: for CYP1A1 (forward: 5′-[…]-3′; reverse: 5′-[…]-3′), CYP1A2 (forward: 5′-[…]-3′; reverse: 5′-[…]-3′), CYP2C6 (forward: 5′-[…]-3′; reverse: 5′-[…]-3′), CYP2C11 (forward: 5′-[…]-3′; reverse: 5′-[…]-3′), CYP2D1 (forward: 5′-[…]-3′; reverse: 5′-[…]-3′), CYP2E1 (forward: 5′-[…]-3′; reverse: 5′-[…]-3′), CYP3A1 (forward: 5′-[…]-3′; reverse: 5′-[…]-3′), CYP3A2 (forward: 5′-[…]-3′; reverse: 5′-[…]-3′), and P-glycoprotein (forward: 5′-[…]-3′; reverse: 5′-[…]-3′). The PCR for CYP1A1 was performed as follows: 5 min at 95°C and then 35 cycles of 30 s at 94°C, 30 s at 54°C, and 60 s at 72°C. For CYP1A2 and CYP3A2 amplification, the PCR cycle number was 30 times through a 30 s denaturing step at 94°C, a 30 s annealing step at 55°C, and a 30 s elongation step at 72°C. For CYP2D1 and CYP3A1, the PCR cycle number was 30 times through a 60 s denaturing step at 94°C, a 60 s annealing step at 56°C, and a 125 s elongation step at 72°C. […] The PCR amplicons were then electrophoresed in 1% agarose gels containing 40 mM Tris/20 mM glacial acetic acid/2 mM EDTA buffer, and the relative densities of the PCR products were quantitated by use of Image Gauge software (Fujifilm, Tokyo, Japan). […]

[2] = Rat growth: body weight and liver weight after 5 days of daily oral dosing; format: in vivo, Sprague-Dawley rats; conditions: rats, oral 2 g/kg APE or 50 mg/kg AND daily for 5 days
Description: Seven-week-old male Sprague-Dawley rats cannulated in the jugular vein were purchased from the Bio LASCO Experimental Animal Center (Taipei, Taiwan). The animals were fed a standard rat diet and were randomly assigned into control, APE-treated, and andrographolide-treated groups (n = 5). Rats were housed in plastic cages in a room kept at 23 ± 1°C and 60 ± 5% relative humidity with a 12-hour light and dark cycle. Food and drinking water were available ad libitum. Control rats were orally administered methyl cellulose. […] After the 5th daily dose, rats were deprived of food overnight. On day 6, a 20 mg/kg oral dose of tolbutamide, as a solution in Cremophor EL (polyoxyl 35 hydrogenated castor oil, Sigma)/ethanol/water (30/10/60, v/v/v), was administered to each rat. After the administration of tolbutamide, serial blood samples were collected up to 12 h after dosing from each rat. The animals were then killed by exsanguination, and the livers were collected.
All animals were killed by exsanguination via the abdominal aorta while under carbon dioxide (CO2/O2, 70%/30%) anesthesia. Heparin was used as the anticoagulant. Plasma was separated from the blood by centrifugation (1750 ×g) at 4°C for 20 min. The liver from each animal was excised, weighed, and stored at −80°C. This research has received ethical approval from the institutional animal ethics committee of China Medical University, Taichung, Taiwan.

Cytochrome b5 = Cytochrome b5 content in liver microsomes of treated rats; format: in vivo; conditions: rat liver microsomes; oral 2 g/kg APE or 50 mg/kg AND daily for 5 days
Description: Liver was homogenized (1 : 4, w/v) in an ice-cold potassium phosphate buffer (pH 7.4) containing 7.4 mM K2HPO4, 2.6 mM KH2PO4, 1.15% KCl, and 1 mM phenylmethylsulfonyl fluoride (PMSF). Tissue homogenates were centrifuged at 10,000 ×g for 30 min at 4°C. The resulting supernatant was then centrifuged at 105,000 ×g for 1 h at 4°C. The microsomes thus obtained were washed several times to get rid of possible tolbutamide contamination and this can avoid tolbutamide interference of CYP activity, and the microsomes were then suspended in potassium phosphate buffer (pH 7.7) containing 7.5 mM K2HPO4, 14.5 mM KH2PO4, and 1 mM EDTA. […] Metabolites of each CYP enzyme reaction were determined by LC/MS as reported previously. The contents of total CYP and cytochrome b5 were quantified by the method of Omura and Sato [29]. Enzyme activity is expressed as picomoles of metabolite formed per minute per milligram of protein. The NADPH-CYP reductase activity was measured as described by Phillips and Langdon with the use of cytochrome c as the substrate. The microsomal protein concentration was determined by using a Coomassie Plus protein assay kit (Pierce, Rockford, IL, USA).

C=C1CC[C@@H]2[C@](C)(CO)[C@H](O)CC[C@@]2(C)[C@@H]1C/C=C1/C(=O)OC[C@H]1O [andrographolide, Andrographolide]
mRNA levels of CYP1A1, CYP1A2, CYP2C6, CYP2C11, and CYP3A2 [1]: induced | Relative liver weight ([2]; (liver weight/body weight) × 100): 3.8 ± 0.3% | Body weight, Final ([2]; mean ± SD, n = 5): 332 ± 13^a g | Liver weight ([2]; mean ± SD, n = 5): 12.8 ± 1.5 g | Cytochrome b5 content (Cytochrome b5): 327 ± 79 pmol/mg protein
